Laboratory results reported in the supplement of paper PMC10307832.

Legend:
Assay in all cases: relative viability (nuclei count vs DMSO), 5 days (fraction); higher = more cells survive
VX-702 + AZD7762 = compound: NC(=O)c1ccc(N(C(N)=O)c2c(F)cccc2F)nc1-c1ccc(F)cc1F [VX-702] + NC(=O)Nc1cc(-c2cccc(F)c2)sc1C(=O)N[C@H]1CCCNC1 [AZD7762] (partner 0.2 µM)
Summary of the method: (§1)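 One day after seeding in 1536-well plates, lung cancer cell lines were dosed by pin tool. Dosing was either single-drug or a fixed anchor-drug dose plus five library-drug doses (not always all listed) in √10 steps. After 5 days, nuclei were stained in one fix-and-stain step and counted on 4× images, and relative viability is the nuclei count of treated wells over that of vehicle wells, given as the median of duplicate plates.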

VX-702 + Trametinib = compound: NC(=O)c1ccc(N(C(N)=O)c2c(F)cccc2F)nc1-c1ccc(F)cc1F [VX-702] + CC(=O)Nc1cccc(-n2c(=O)n(C3CC3)c(=O)c3c(Nc4ccc(I)cc4F)n(C)c(=O)c(C)c32)c1 [Trametinib] (partner 0.02 µM)
Summary of the method: as §1

Dabrafenib + Decitabine = compound: CC(C)(C)c1nc(-c2cccc(NS(=O)(=O)c3c(F)cccc3F)c2F)c(-c2ccnc(N)n2)s1 [Dabrafenib] + Nc1ncn([C@H]2C[C@H](O)[C@@H](CO)O2)c(=O)n1 [Decitabine] (partner 2 µM)
Summary of the method: as §1

Dabrafenib + Pictilisib = compound: CC(C)(C)c1nc(-c2cccc(NS(=O)(=O)c3c(F)cccc3F)c2F)c(-c2ccnc(N)n2)s1 [Dabrafenib] + CS(=O)(=O)N1CCN(Cc2cc3nc(-c4cccc5[nH]ncc45)nc(N4CCOCC4)c3s2)CC1 [Pictilisib] (partner 1 µM)
Summary of the method: as §1

Cell Line | relative viability (VX-702 + AZD7762; first compound 0.02 µM) | relative viability (VX-702 + AZD7762; first compound 0.2 µM) | relative viability (VX-702 + AZD7762; first compound 0.6325 µM) | relative viability (VX-702 + AZD7762; first compound 2 µM) | relative viability (VX-702 + Trametinib; first compound 0.02 µM) | relative viability (VX-702 + Trametinib; first compound 0.2 µM) | relative viability (VX-702 + Trametinib; first compound 0.6325 µM) | relative viability (VX-702 + Trametinib; first compound 2 µM) | relative viability (Dabrafenib + Decitabine; first compound 0.003 µM) | relative viability (Dabrafenib + Decitabine; first compound 0.009487 µM) | relative viability (Dabrafenib + Decitabine; first compound 0.03 µM) | relative viability (Dabrafenib + Decitabine; first compound 0.09487 µM) | relative viability (Dabrafenib + Decitabine; first compound 0.3 µM) | relative viability (Dabrafenib + Pictilisib; first compound 0.003 µM) | relative viability (Dabrafenib + Pictilisib; first compound 0.009487 µM) | relative viability (Dabrafenib + Pictilisib; first compound 0.03 µM) | relative viability (Dabrafenib + Pictilisib; first compound 0.09487 µM) | relative viability (Dabrafenib + Pictilisib; first compound 0.3 µM)
201T | 0.585 | 0.561 | 0.509 | 0.449 | 0.733 | 0.756 | 0.744 | 0.774 | 0.853 | 0.825 | 0.731 | 0.846 | 0.769 | 0.665 | 0.711 | 0.607 | 0.65 | 0.71
A549 | – | – | – | – | – | – | – | – | – | 0.277 | 0.201 | 0.212 | 0.0722 | 0.497 | 0.487 | 0.519 | 0.544 | 0.64
A-427 | 0.742 | 0.699 | 0.661 | 0.738 | 0.752 | 0.707 | 0.687 | 0.724 | 0.569 | 0.562 | 0.569 | 0.551 | 0.504 | – | 0.611 | 0.769 | 0.522 | 0.675
ABC-1 | 0.425 | – | 0.432 | 0.897 | – | – | – | – | – | 1.07 | 1.15 | 1.28 | 1.54 | – | 0.86 | 0.823 | 0.778 | 0.822
BEN | 0.841 | 0.637 | 0.597 | 0.691 | 1.1 | 0.907 | 1.03 | 1.07 | – | 0.865 | – | 0.721 | 0.656 | – | 0.58 | – | 0.52 | 0.687
CAL-12T | 0.517 | 0.644 | 0.58 | 0.625 | 0.368 | 0.371 | 0.321 | 0.329 | – | – | – | – | – | 0.319 | 0.392 | 0.395 | 0.57 | 0.535
COR-L23 | – | – | – | – | 0.715 | 0.602 | 0.686 | 0.69 | 0.475 | 0.47 | 0.41 | 0.432 | 0.279 | 0.8 | 0.888 | 0.704 | 0.632 | 0.647
COR-L 105 | – | – | – | – | 0.472 | 0.437 | 0.395 | 0.42 | 0.6 | 0.691 | 0.666 | 0.681 | 0.675 | 0.297 | 0.435 | 0.353 | 0.454 | 0.474
Calu-6 | – | – | – | – | – | – | – | – | – | – | – | – | – | 0.968 | 0.913 | 0.867 | 0.715 | 0.694
ChaGo-K-1 | 0.958 | 0.879 | 0.896 | 0.879 | 0.948 | 0.903 | 0.859 | 0.844 | 0.456 | 0.508 | 0.552 | 0.522 | 0.402 | – | 0.591 | 0.749 | 0.721 | 0.933
EBC-1 | – | – | – | – | – | – | – | – | – | – | – | – | – | 0.397 | 0.37 | 0.272 | 0.184 | 0.227
EKVX | 0.726 | 0.673 | 0.407 | 0.776 | 0.241 | 0.291 | 0.307 | 0.281 | – | 0.38 | 0.29 | 0.44 | 0.353 | 0.413 | 0.458 | 0.38 | 0.495 | 0.59
EMC-BAC-2 | 1.11 | 1.08 | 1.16 | 1.08 | 0.914 | 0.921 | 0.842 | 0.725 | – | 0.959 | 0.974 | 0.933 | 0.905 | 0.52 | 0.434 | 0.389 | 0.585 | 0.623
EPLC-272H | 0.0171 | 0.202 | 0.234 | 0.211 | 0.296 | 0.279 | 0.279 | 0.273 | – | 0.393 | 0.367 | 0.365 | 0.442 | – | 0.212 | 0.288 | 0.414 | 0.369
H3255 | 0.987 | 0.901 | 0.994 | 0.996 | 0.488 | – | 0.581 | 0.662 | 0.539 | 0.704 | 0.585 | 0.625 | 0.649 | 0.394 | 0.566 | 0.43 | 0.405 | 0.462
HARA | 0.313 | – | 0.306 | 0.331 | 0.818 | – | 0.776 | 0.63 | – | 0.537 | 0.595 | 0.539 | 0.499 | 0.327 | 0.629 | 0.325 | 0.399 | 0.605
HCC-15 | 1.31 | 1.18 | 1.32 | 1.19 | 0.345 | 0.364 | 0.322 | 0.294 | 0.586 | 0.677 | 0.665 | 0.669 | 0.636 | 0.595 | 0.851 | 0.654 | 0.797 | 0.725
HCC-44 | 1.05 | 1.03 | 1.06 | 1.04 | 1.11 | 1.06 | 1.05 | 1.1 | 1.04 | 0.851 | 0.921 | 0.963 | 0.872 | 0.555 | 0.67 | 0.499 | 0.704 | 0.699
HCC-78 | 0.541 | 0.589 | 0.774 | 0.798 | 0.53 | 0.861 | 0.741 | 0.801 | – | 0.681 | 0.55 | 0.625 | 0.474 | – | 0.235 | 0.192 | 0.276 | 0.219
HCC-366 | 0.381 | 0.218 | 0.372 | 0.123 | 0.341 | 0.314 | 0.269 | 0.266 | 0.392 | 0.33 | 0.404 | 0.364 | 0.176 | 0.161 | 0.183 | 0.0973 | 0.169 | 0.118
HCC-827 | 0.2 | 0.226 | 0.215 | 0.137 | 0.55 | 0.501 | 0.515 | 0.425 | 0.267 | 0.347 | 0.33 | – | 0.283 | 1.07 | 1.13 | 0.89 | – | 1.03
HOP-62 | 0.95 | 0.409 | 1.08 | 0.465 | 0.419 | 0.397 | 0.469 | 0.45 | 0.216 | 0.183 | 0.221 | 0.188 | 0.217 | – | 0.843 | 0.648 | 0.581 | 0.727
